The subject of assay [1] is NZBxW F1 mice (spontaneous lupus-like kidney disease). Kind of assay: NZBxW F1 preclinical model of SLE, treatment initiated at 9 months of age (severe disease), CD4 antibody and MMF.
Protocol: (§1) Proteinuria was measured using a Clinitek® 50 Urine Chemistry Analyzer (Bayer Corporation, Elkhart, Ind., USA). A drop of freshly collected urine was placed on a reagent strip (Multistix® 10 SG, Bayer), and the strip was immediately inserted into the analyzer after removal of excess urine by blotting with a clean gauze sponge.
Numbers of activated CD4+ T cells found in spleen were determined by flow cytometry as follows. Whole spleens were harvested and crushed into single cell suspensions, which were then red blood cell lysed using EL buffer (erythrocyte lysis buffer, from Qiagen, Valencia, Calif., catalog number 79217), passed through a 70 micron cell strainer, and then resuspended for cell counts. A fixed volume of each cell suspension was mixed with a fluorescent bead (Polysciences, Inc., catalog number 18862) solution of known concentration. The mixture was then run on a FACScan™ flow cytometer from BD Biosciences (Franklin Lakes, N.J.). By collecting a fixed number of beads for each mixture, the total number of live cells could be calculated and subsequently used to determine total numbers of cell subpopulations for the spleen of each mouse after further FACS analysis.
Treatment of NZB×NZW mice was initiated at 9 months of age. Mice were screened for proteinuria and randomized into groups based on their proteinuria scores. […] Mice were monitored for changes in proteinuria (urinalysis was performed as described above in Example 1), disease progression, and survival. […] MMF was given IP at either 25 mg/kg daily or 50 mg/kg daily (alone or in combination with the CD4 antibody).
CD4^+ T cell and B2 B cell numbers were determined by flow cytometry basically as described above, using antibodies to identify the various cell populations and then using the percentage of each population represented (of total lymphocytes) multiplied by the total number of lymphocytes to determine the number of each population. B2 cells (the majority of B cells) were identified by positive staining for B220 (CD45) and CD38. Anti-B220/CD45 and anti-CD38 were from BD Pharmingen.
Comparisons were performed using Dunnett's method with the control antibody treated group as the reference control group (designated in bold), and only p values for groups that achieve statistical significance vs. the reference control are designated on the graph.
For assay [2] the test system is unchanged. Kind of assay: NZBxW F1 preclinical model of SLE, treatment initiated at 8 months of age (moderate-severe disease). It counts as in vivo, mouse. The following applies: over time after treatment; CTX 50 mg/kg IP every 10 days; FIG. 7A.
Description: The control antibody was an irrelevant mouse IgG1 antibody (a mouse antibody was used for the control since an irrelevant rat antibody would elicit an immune response against itself, influencing the course of disease; the rat anti-CD4 antibody prevents such a response to itself).
At 8 months of age, NZB×NZW mice were screened for proteinuria and randomized into 5 groups based on their proteinuria scores. At this age, disease is considered to be moderate-severe. At the onset of the experiment, each group of 19 mice was composed of the following distribution of protein concentrations in the urine: 32% at >300 mg/dl; 24% at 100-300 mg/dl; and 44% at 30-100 mg/dl. […] Mice were monitored for changes in urine protein concentration (e.g., proteinuria), Blood Urea Nitrogen (BUN), and survival.
as §1
Blood urea nitrogen was measured using a Cobas Integra® 400 chemistry analyzer (Roche Diagnostics, Basel, Switzerland) and urea detection reagent (also supplied by Roche Diagnostics) according to the manufacturer's instructions. […]
Assay [3] concerns SJL/J mice with PLP-139-151 peptide induced EAE. Kind of assay: Relapsing and remitting EAE induced by PLP peptide in SJL/J mice (model of MS). Format: in vivo, mouse. As to conditions: treatment initiated at day 14 (peak of disease), CD4 antibody = murinized YTS177; FIG. 12. The source says: Experimental autoimmune encephalomyelitis (EAE) is an inflammatory condition of the central nervous system (CNS) with similarities to MS; in both diseases, demyelination results in impaired nerve conduction and paralysis. Relapsing and remitting EAE induced by injection of proteolipid protein (PLP) peptide in SJL/J mice provides a useful preclinical efficacy model of MS (see, e.g., Miller and Karpus (1996) “Experimental Autoimmune Encephalomyelitis in the Mouse” in Current Protocols in Immunology, Coligan et al. (eds.), John Wiley & Sons, Inc. and Sobel et al. (1990) “Acute experimental allergic encephalomyelitis in SJL/J mice induced by a synthetic peptide of myelin proteolipid protein” J Neuropathol Exp Neurol. 49(5):468-79).
FIG. 10 schematically illustrates progression of the disease over time after injection of the PLP peptide in this model. Injection at day 0 is followed by disease onset (days 0-15), remission (days 15-25), and relapse (day 25-termination of the study at days 60-70). […]
Numbers of effector/memory cells in the blood were determined by flow cytometry as follows. […]
To 1×10^6 cells, a saturating amount of fluorophore-conjugated antibodies were added and incubated on ice for 30 minutes, followed by washing with cold buffer. […] Samples were analyzed by flow cytometry on a FACSCalibur from BD Biosciences. […]

Three compounds from patent US20080279848A1, “Methods of treating lupus using CD4 antibodies” (GENENTECH, INC., priority 2006, published 2008) can be followed below.

`COc1c(C)c2c(c(O)c1C/C=C(\C)CCC(=O)OCCN1CCOCC1)C(=O)OC2` [MMF, 2-morpholinoethyl (E)-6-(1,3-dihydro-4-hydroxy-6-methoxy-7-methyl-3-oxo-5-isobenzofuranyl)-4-methyl-4-hexenoate]: the “blood B2 B cell numbers” value in assay [1] (25 mg/kg MMF, may not be statistically significant, FIG. 20B) is reported as “increase”. In addition, the “proteinuria, multiple comparison analysis (Dunnett's method) vs control antibody” value in assay [1] (month 2 of treatment, MMF 50 or 25 mg/kg daily, FIG. 19) is on record as “did not show statistically significant reduction in proteinuria”. Besides, the “capacity to reverse severe proteinuria (mice reversed from 300 mg/dl proteinuria)” value in assay [1] (one month of treatment, MMF 25 or 50 mg/kg daily IP, YTS177 5 mg/kg 3x/week, FIG. 17B) was “not sufficient to reverse severe proteinuria significantly”. Besides, the “mice exhibiting >300 mg/dl proteinuria (reversal of nephritis symptoms in very late stage disease)” value in assay [1] (over time after treatment, FIG. 17A) is “not observed”.
As for `O=P1(N(CCCl)CCCl)NCCCO1` (stereo not drawn) [cyclophosphamide], the “mice exhibiting >300 mg/dl proteinuria (reversal of nephritis symptoms in very late stage disease)” value in assay [2] is reported as “not observed”.
With glatiramer acetate, in assay [3], the clinical score entry was “ineffective”.
